Experimental data reported in patent US7265130B2, “NPY Y5 antagonist” (Shionogi & Co., Ltd., priority 1999, dated 2007).

Legend:
human NPY Y5 receptor [1] = target: T1, human NPY Y5 receptor (Homo sapiens, UniProt Q15761); assay: Affinity for NPY Y5 receptor ([125I] peptide YY binding, CHO cell membranes); settings: inhibition of specific [125I] peptide YY binding, membranes of CHO cells expressing NPY Y5 receptor
T1 construct: expressed in transfected cells
T1 sequence (Q15761 1-445): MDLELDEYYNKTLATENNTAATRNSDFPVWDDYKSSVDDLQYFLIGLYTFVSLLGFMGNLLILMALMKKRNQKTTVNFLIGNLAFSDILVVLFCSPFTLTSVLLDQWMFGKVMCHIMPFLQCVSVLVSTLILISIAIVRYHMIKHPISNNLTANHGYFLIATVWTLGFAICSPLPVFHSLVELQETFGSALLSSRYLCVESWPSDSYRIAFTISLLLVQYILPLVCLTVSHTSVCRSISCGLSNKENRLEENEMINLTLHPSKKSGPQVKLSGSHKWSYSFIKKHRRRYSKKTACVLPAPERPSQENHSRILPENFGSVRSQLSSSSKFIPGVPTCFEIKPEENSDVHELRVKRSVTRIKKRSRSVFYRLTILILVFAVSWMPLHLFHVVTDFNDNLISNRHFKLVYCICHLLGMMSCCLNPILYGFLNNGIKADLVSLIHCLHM
Source text: Experiment 1 Affinity for NPY Y5 Receptor
cDNA sequence encoding a human NPY Y5 receptor (WO096/16542) was cloned in the expression vector pME18S (Takebe et al. Mol. Cell. Biol. 8, 8957). The obtained expression vector was transfected into a host CHO cells by using a Lipofect AMINE reagent (Trademark, Gibco BRL Co., Ltd.) according to an instruction protocol to obtain the cells that stably express NPY Y5 receptor.
The membranes prepared from the above CHO cells expressing NPY Y5 receptor, the compound of the present invention and 30,000 cpm [^125I] peptide YY (60 pM of final concentration: Amersham) were incubated in the assay buffer (20 mM HEPES-Hanks buffer containing 0.1% bovine serum albumin, pH 7.4) at 25° C. for 2 hours, and then the mixture was filtered with a glassfilter GF/C treated with polyethyleneimine. After the glassfilter was washed with 50 mM Tris-HCl buffer (pH 7.4), the radioactivity on the filter was measured with a gamma counter. The non-specific binding was detected in the presence of 200 nM of peptide YY. The 50% inhibitory concentration of the test compound against the specific peptide YY binding (IC50 value) was calculated (Inui, A. et al. Endocrinology 131, 2090-2096 (1992)).

human NPY Y5 receptor [2] = target: T1, human NPY Y5 receptor; assay: cAMP production inhibitory activity in CHO cells; format: cell-based; settings: against 50 nM NPY inhibition of forskolin stimulated cAMP, CHO cells expressing human NPY Y5 receptor
Procedure: Experiment 2 cAMP production inhibitory activity in CHO cells
After CHO cells expressing human NPY Y5 receptor were incubated in the presence of 2.5 mM isobutylmethylxanthine (SIGMA) at 37° C. for 20 min., the compound of the present invention was added and incubated for 5 min. Then, 50 nM NPY and 10 μM forskolin (SIGMA) were added to the cells and incubated for 30 min. After the reaction was terminated by adding 1N HCl, the amount of cAMP in the supernatant was measured with EIA kit (Amersham LIFE SCIENCE).

SMILES	IC50 (human NPY Y5 receptor [1]) [nM]	IC50 (human NPY Y5 receptor [2]) [nM]
CCCCc1ccc(NC(=O)C2CCC(NS(=O)(=O)C(C)(C)C)CC2)cc1 (stereo not shown) [Compound I-22]	8.6	51
CCCCc1ccc(NC(=O)C2CCC(CNS(=O)(=O)C(C)(C)C)CC2)cc1 (stereo not shown) [Compound I-24]	9.6	71
CCCCc1ccc(NC(=O)C2CCC(NS(=O)(=O)C(C)(C)C)CC2)cc1 (stereo not shown) [Compound I-25]	0.6	2.6
CCN(CC)c1ccc(NC(=O)C2CCC(NS(=O)(=O)C(C)(C)C)CC2)cc1 (stereo not shown) [Compound I-44]	1	13.4
CC(C)(C)S(=O)(=O)NC1CCC(C(=O)Nc2ccc(Oc3ccccc3)cc2)CC1 (stereo not shown) [Compound I-50]	0.3	8.4
CC(C)(C)S(=O)(=O)NC1CCC(C(=O)Nc2ccc(N3CCN(c4ccccc4)CC3)cc2)CC1 (stereo not shown) [Compound I-53]	4.1	21
CC(C)(C)S(=O)(=O)NC1CCC(C(=O)Nc2ccc(N3CCN(c4ncccn4)CC3)cc2)CC1 (stereo not shown) [Compound I-55]	9	40
CCOC(=O)C1CCN(c2ccc(NC(=O)C3CCC(NS(=O)(=O)C(C)(C)C)CC3)cc2)CC1 (stereo not shown) [Compound I-57]	4.8	47
CC(C)(C)S(=O)(=O)NC1CCC(C(=O)Nc2ccc(N3CCc4ccccc4C3)cc2)CC1 (stereo not shown) [Compound I-60]	0.69	18
CC(C)(C)S(=O)(=O)NC1CCC(C(=O)Nc2ccc(-n3cnc(Cl)c3Cl)cc2)CC1 (stereo not shown) [Compound I-62]	0.58	16
CC(C)(C)S(=O)(=O)NC1CCC(C(=O)Nc2ccc(-c3ccc(N4CCCCC4)cc3)cc2)CC1 (stereo not shown) [Compound I-65]	1.8	72
CC(=O)Nc1cccc(NC(=O)C2CCC(NS(=O)(=O)C(C)(C)C)CC2)c1 (stereo not shown) [Compound I-67]	2	17
CC(C)(C)S(=O)(=O)NC1CCC(C(=O)Nc2ccc(N3CCc4ccccc43)cc2)CC1 (stereo not shown) [Compound I-75]	0.55	3.4
CC(C)(C)S(=O)(=O)NC1CCC(C(=O)Nc2ccc(-n3ccc4ccccc43)cc2)CC1 (stereo not shown) [Compound I-76]	0.61	5.5
CC(C)(C)S(=O)(=O)NC1CCC(C(=O)Nc2ccc(-n3cccn3)cc2)CC1 (stereo not shown) [Compound I-77]	1.8	28
CC(C)(C)S(=O)(=O)NC1CCC(C(=O)Nc2ccc(-c3csnn3)cc2)CC1 (stereo not shown) [Compound I-79]	0.59	25
CC(C)(C)S(=O)(=O)NC1CCC(C(=O)Nc2ccc(Nc3ccccc3)cc2)CC1 (stereo not shown) [Compound I-83]	0.61	29
CC(C)(C)S(=O)(=O)NC1CCC(C(=O)Nc2ccc(-n3ncnn3)cc2)CC1 (stereo not shown) [Compound I-84]	1.3	25
CC(C)(C)S(=O)(=O)NC1CCC(C(=O)Nc2ccc(N(CCO)CCO)cc2)CC1 (stereo not shown) [Compound I-86]	3.4	100
COC(=O)CCCc1ccc(NC(=O)C2CCC(NS(=O)(=O)C(C)(C)C)CC2)cc1 (stereo not shown) [Compound I-87]	0.66	21
CC(C)(C)S(=O)(=O)NC1CCC(C(=O)Nc2ccc(N3CCC(O)C3)cc2)CC1 (stereo not shown) [Compound I-90]	2.8	50
CCCCc1ccc(NC(=O)c2ccc(N[S+]([O-])C(C)(C)Cl)cc2)cc1 (stereo not shown) [Compound I-92]	7	61

SMILES	IC50 (human NPY Y5 receptor [1]) [nM]	IC50 (human NPY Y5 receptor [2]) [nM]
CCCCc1ccc(NC(=O)c2ccc(N[S+]([O-])C(C)(C)C)cc2)cc1 (stereo not shown) [Compound I-101]	3.9	38
CCCCc1ccc(NC(=O)c2ccc(NS(=O)(=O)C(C)(C)C)cc2)cc1 [Compound I-102]	1.7	14
CCCCc1ccc(NC(=O)c2ccc(NS(=O)(=O)C(C)(C)Cl)cc2)cc1 [Compound I-106]	6.4	29
CCCCc1ccc(NC(=O)CCCCNS(=O)(=O)C(C)(C)CC)cc1 [Compound I-109]	1.2	3.2
CCCCc1ccc(NC(=O)CCCCNS(=O)(=O)CC(C)C)cc1 [Compound I-110]	4.3	13.6
CCCCc1ccc(NC(=O)CCCCNS(=O)(=O)C(C)CC)cc1 (stereo not shown) [Compound I-111]	1.8	6.1
CCCCc1ccc(NC(=S)CCCCNS(=O)(=O)CC(C)C)cc1 [Compound I-114]	7	30
CCCCOc1ccc(NC(=O)CCCCNS(=O)(=O)C(C)CC)cc1 (stereo not shown) [Compound I-116]	1.2	11
CCCCc1ccc(NC(=O)N2CCC(NS(=O)(=O)C(C)(C)C)CC2)cc1 [Compound I-120, 4-t-butylsulfonylaminopiperidine-1-carboxylic acid(4-butylphenyl)amide]	1.4	4.8
CCCCc1ccc(NC(=O)C23CCC(NS(=O)(=O)C(C)(C)C)(CC2)CC3)cc1 [Compound I-123]	1.8	168
CC(C)(C)S(=O)(=O)NC1CCC(C(=O)Nc2cccc(OC(F)(F)C(F)F)c2)CC1 (stereo not shown) [Compound I-126]	0.6	13.2
CC(=O)c1ccc(NC(=O)C2CCC(NS(=O)(=O)C(C)(C)C)CC2)cc1 (stereo not shown) [Compound I-127]	1.4	30.4
CSc1ccc(NC(=O)C2CCC(NS(=O)(=O)C(C)(C)C)CC2)cc1 (stereo not shown) [Compound I-128]	1.3	10.2
CC(C)(C)S(=O)(=O)NC1CCC(C(=O)Nc2cccc3cc4ccccc4cc23)CC1 (stereo not shown) [Compound I-129]	2.1	174
CC(C)(C)S(=O)(=O)NC1CCC(C(=O)Nc2ccc(C(C#N)c3ccccc3)c(Cl)c2)CC1 (stereo not shown) [Compound I-130]	1.1	42.5
Cn1cc(Br)c(-c2cccc(NC(=O)C3CCC(NS(=O)(=O)C(C)(C)C)CC3)c2)n1 (stereo not shown) [Compound I-131]	1.1	34.8
COc1cc2c(cc1NC(=O)C1CCC(NS(=O)(=O)C(C)(C)C)CC1)oc1ccccc12 (stereo not shown) [Compound I-132]	2.2	30.4
CCC(C)COC(=O)/C=C/c1ccc(NC(=O)C2CCC(NS(=O)(=O)C(C)(C)C)CC2)cc1 (stereo not shown) [Compound I-133]	0.9	21.1
CC(C)(C)S(=O)(=O)NC1CCC(C(=O)Nc2cccc(Oc3ccccc3)c2)CC1 (stereo not shown) [Compound I-134]	0.5	10
CC(C)(C)S(=O)(=O)NC1CCC(C(=O)Nc2ccc3c(c2)C(=O)c2ccccc2-3)CC1 (stereo not shown) [Compound I-135]	0.7	22
CC(C)(C)S(=O)(=O)NC1CCC(C(=O)Nc2ccc(-c3ccc(C#N)cc3)cc2)CC1 (stereo not shown) [Compound I-137]	1.4	68.2
Cc1ccc2cc(NC(=O)C3CCC(NS(=O)(=O)C(C)(C)C)CC3)ccc2n1 (stereo not shown) [Compound I-138]	1	18.6
